{
  "source": "paper PMC3496398",
  "about": "(Molecular pharmaceutics, 2010)",
  "key": {"[1]": {"system": "Caco-2 cell monolayers", "experiment": "Caco-2 cell monolayer transport assay", "format": "in vitro ADME", "conditions": "apical pH 6.5 to basolateral pH 7.4, 0 mM HNAP"}, "[2]": {"system": "rat jejunum", "experiment": "Rat jejunal single-pass perfusion assay", "format": "in vivo", "conditions": "for rat jejunal Peff in the absence of HNAP: drug perfused alone, 0 mM HNAP"}, "[3]": {"experiment": "Octanol-buffer", "conditions": "Log PAB versus cLog P of free drug"}, "[4]": {"conditions": "in humans; cited from earlier work"}, "[5]": {"conditions": "rat, in vivo; cited from earlier work"}, "[6]": {"system": "influenza virus neuraminidase", "conditions": "influenza virus neuraminidase inhibitor; cited from earlier work"}},
  "note": "Entries after “also recorded” stand apart in the source; their conditions may differ.",
  "data": [
    {"compound": "CCOC(=O)C1=C[C@@H](OC(CC)CC)[C@H](NC(C)=O)[C@@H](NC(=N)N)C1", "note": "[GO, (3R,4R,5S)-ethyl-4-acetamido-5-guanidino-3-(pentan-3-yloxy)cyclohex-1-enecarboxylate]", "values": [
      {"measurement": "Caco-2 Papp in the absence of HNAP", "setting": "[1]", "value": "no detectable transport"},
      {"measurement": "change of rat jejunal Peff on co-perfusion with HNAP", "setting": "[2]; co-perfusion with 12 mM HNAP versus drug alone", "value": "failed to increase; also recorded: no significant increase"},
      {"measurement": "rat jejunal Peff in the absence of HNAP", "setting": "[2]", "value": "No effective permeability; also recorded: Essentially zero"},
      {"measurement": "increase of log P by ion-pairing with HNAP compared to the free drug", "setting": "[3]", "value": 3.7, "unit": "units"}
    ]},
    {"compound": "CCOC(=O)C1=C[C@@H](OC(CC)CC)[C@H](NC(C)=O)[C@@H](N)C1", "note": "[OSV, oseltamivir]", "values": [
      {"measurement": "oral absorption", "setting": "[4]", "value": "60–80%"}
    ]},
    {"compound": "CCCCCCCOC(=O)C1=C[C@H](NC(=N)N)[C@@H](NC(C)=O)[C@H]([C@H](O)[C@H](O)CO)O1", "note": "[ZHE, 5-Acetamido-2,6-anhydro-4-(guanidino)-3,4,5-trideoxy-D-glycero-D-galcto-non-2-enonic acid heptyl ester]", "values": [
      {"measurement": "Caco-2 Papp in the absence of HNAP", "setting": "[1]", "value": "no detectable transport"},
      {"measurement": "rat jejunal Peff at 4 mM HNAP", "setting": "[2]; 4 mM HNAP", "value": "2.1e-05", "unit": "cm/s"},
      {"measurement": "rat jejunal Peff at 10 mM HNAP", "setting": "[2]; 10 mM HNAP", "value": "4e-05", "unit": "cm/s"},
      {"measurement": "rat jejunal Peff in the absence of HNAP", "setting": "[2]", "value": "essentially zero"},
      {"measurement": "increase of log P by ion-pairing with HNAP compared to the free drug", "setting": "[3]", "value": 1.2, "unit": "units"}
    ]},
    {"compound": "CC(=O)N[C@H]1[C@H]([C@H](O)[C@H](O)CO)OC(C(=O)O)=C[C@@H]1N=C(N)N", "note": "[ZNV, Zanamivir]", "values": [
      {"measurement": "percent of oral dose absorbed (%F)", "setting": "[5]", "value": 4, "unit": "%"}
    ]},
    {"compound": "CCC(CC)O[C@@H]1C=C(C(=O)O)C[C@H](NC(=N)N)[C@H]1NC(C)=O", "note": "[active carboxylate of GO]", "values": [
      {"measurement": "IC50", "setting": "[6]", "value": 0.9, "unit": "nM"}
    ]}
  ]
}
